Test system: BIP
Experiment: ER chaperone secretion assay, BIP
Assay type: cell-based, human
Text: Figure 1. ER retrieval signal abundance and affinity are not correlated. (a) Sequence logos for ER resident proteins with C-terminal KDEL retrieval signals and variants thereof calculated using frequency or protein abundance ([Itzhak et al., 2017]; [Itzhak et al., 2016]). (b) Combined cellular concentrations of ER resident proteins with canonical KDEL, RDEL, and HDEL retrieval sequences in HeLa cells and mouse brain. (c) Competition binding assays for [^3H]-TAEHDEL and unlabelled TAEKDEL, TAERDEL, and TAEHDEL to the KDEL receptor. IC50 values for the competing peptides were used to calculate the apparent KDwith the Cheng-Prusoff equation ([Cheng and Prusoff, 1973]). (d) Endogenous KDEL receptor redistribution was measured in COS-7 cells in the absence (-ligand) or presence of K/R/H/A/DDEL (mScarlet-xDEL^sec). TGN46 was used as a Golgi marker. Scale bar is 10 µm. (e) The mean difference for K/R/H/A/DDEL comparisons against the shared no ligand control are shown as Cummings estimation plots. The individual data points for the fraction of KDEL receptor fluorescence in the Golgi are plotted on the upper axes with sample sizes and p values. Figure 1—source data 1. Source data for the ligand-induced KDELR receptor retrieval assays in Figure 1e. Figure 1—figure supplement 1. Abundance of ER resident proteins and chaperones in human cells and mouse brain. (a) The mean concentration of ER resident chaperones with the indicated ER retrieval sequence variant is plotted in the bar graph ([Itzhak et al., 2017]; [Itzhak et al., 2016]). […] Endogenous ER chaperone secretion was measured by western blotting after challenge with different retrieval signals, and plotted as a bar graph showing mean ± SEM (n = 3). […] (a) Distribution of human KDELR1 and (b) KDELR2 was measured in COS-7 cells in the absence (-ligand) or presence of K/R/H/A/DDEL retrieval signals (K/R/H/A/DDEL^sec). […] The fraction of KDEL receptor localised to the Golgi was measured before (no ligand) and after challenge with different retrieval signals as indicated. […]

ADEL [pcDNA3.1 hGHss-mScarlet-H. sapiens BiP639-654K651A (ADEL^SEC), secreted mScarlet fusion with human BiP C-terminus, ADEL signal]
BiP secretion after challenge with retrieval signal (mean, HeLa S3, 24 hr, Western blot densitometry): 8.5
BiP secretion after challenge with retrieval signal (replicate 1): 15.9
BiP secretion after challenge with retrieval signal (replicate 2): 1.1
